Active and inactive are the calls of the source.
Columns and labels:
[1] = tested on: INS1; assay: INS-1E survival protection against cytokine death – cell-based, luminescence, retest, dose response (AID 449756); format: functional; details: Rattus norvegicus;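 further: cell death triggered by IL-1 beta plus TNF-alpha plus IFN-gamma mixture; protective hits raise ATP signal compared with cytokine alone wells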
[2] = tested on: CHO-K1; assay: Counterscreen for antagonists of the orexin 1 receptor (OX1R; HCRTR1): Homogeneous time resolved fluorescence (HTRF)-based cell-based dose response assay to identify antagonists of the parental CHO-K1 cell line. [Related pubchem assays (depositor defined):AID434989, AID435008, AID463079, AID485270, AID492963, AID492964, AID492965, AID493232, AID504699, AID504701]; format: functional; details: Cricetulus griseus;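 further: potency for inhibition of ATP-stimulated IP1 production as antagonists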
[3] = NIH-3T3 fibroblast cytotoxicity, dose response, cytotoxicity control, cell-based, fluorescence, Alamar Blue, secondary assay (AID 2327); format: functional;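 further: NIH-3T3 mouse fibroblasts cultured with fluconazole at 8 µg/mL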
[4] = fluconazole-exposed Candida albicans growth modulators – fluorescence, retest, confirmation (AID 2467); format: functional, cell-based
[5] = loss of viability in HepG2 cells – cell-based, CellTiter-Glo, cherry-picked, cytotoxicity control for Shn3 inhibitor project, dose response (AID 624134); format: functional
[6] = molecular target: Troponin, cardiac muscle (Homo sapiens, UniProt P19429+P45379+P63316); assay: compounds desensitizing RTF to calcium – biochemical, fluorescence, cardiac regulated thin filaments, triplicate IC50, dose response (AID 504742); format: protein-complex assay
[7] = molecular target: Tyrosine-protein kinase Fyn (Homo sapiens, UniProt P06241); format: functional
[8] = molecular target: Macrophage colony-stimulating factor 1 receptor (Homo sapiens, UniProt P07333); format: functional;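 further: value comes from the Navigating the Kinome screening panel, CSF1R member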
[9] = molecular target: Dual specificity tyrosine-phosphorylation-regulated kinase 1B (Homo sapiens, UniProt Q9Y463); assay: Navigating the Kinome. Panel member name: DYRK1B; format: functional
[10] = molecular target: Tyrosine-protein kinase JAK3 (Homo sapiens, UniProt P52333); format: functional
[11] = molecular target: T1, cAMP-dependent protein kinase catalytic subunit PRKX (Homo sapiens, UniProt P51817); format: functional
T1 sequence (P51817 whole entry): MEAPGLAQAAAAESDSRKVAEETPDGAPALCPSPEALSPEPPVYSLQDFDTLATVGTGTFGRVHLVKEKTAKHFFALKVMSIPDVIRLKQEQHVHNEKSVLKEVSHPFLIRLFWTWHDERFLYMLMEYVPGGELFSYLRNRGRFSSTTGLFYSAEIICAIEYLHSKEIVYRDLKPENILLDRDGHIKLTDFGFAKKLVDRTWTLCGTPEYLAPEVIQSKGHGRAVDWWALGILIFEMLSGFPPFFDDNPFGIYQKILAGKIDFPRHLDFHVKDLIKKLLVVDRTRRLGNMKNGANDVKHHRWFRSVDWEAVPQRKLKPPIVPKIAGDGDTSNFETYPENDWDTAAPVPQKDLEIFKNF

[12] = molecular target: High affinity nerve growth factor receptor (Homo sapiens, UniProt P04629); format: functional;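 further: NTRK1 tested as one member of a kinome-wide profiling panel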
[13] = molecular target: Glycogen synthase kinase-3 beta (Homo sapiens, UniProt P49841); format: functional;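 further: value comes from a broad kinome profiling panel, with GSK3B as the panel member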
[14] = molecular target: Fibroblast growth factor receptor 1 (Homo sapiens, UniProt P11362); format: functional
[15] = molecular target: Vascular endothelial growth factor receptor 1 (Homo sapiens, UniProt P17948); format: functional;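 further: measured within a kinome-wide profiling panel, FLT1 as the panel member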
[16] = molecular target: Mitogen-activated protein kinase 8 (Homo sapiens, UniProt P45983); format: functional;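 further: value comes from one member of a kinome-wide kinase profiling panel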
[17] = molecular target: Leucine-rich repeat serine/threonine-protein kinase 2 (Homo sapiens, UniProt Q5S007); format: functional;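 further: value from a broad kinome-wide panel profiling study in which LRRK2 was one of the kinases tested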
[18] = molecular target: Calcium/calmodulin-dependent protein kinase type II subunit alpha (Homo sapiens, UniProt Q9UQM7); assay: Navigating the Kinome. Panel member name: CAMK2A; format: functional
[19] = molecular target: Leukocyte tyrosine kinase receptor (Homo sapiens, UniProt P29376); assay: Navigating the Kinome. Panel member name: LTK; format: functional
[20] = molecular target: Tyrosine-protein kinase JAK2 (Homo sapiens, UniProt O60674); format: functional;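 further: JAK2 tested as one member of a kinase panel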
[21] = molecular target: ALK tyrosine kinase receptor (Homo sapiens, UniProt Q9UM73); format: functional;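 further: ALK tested as one member of a kinase panel screen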
[22] = molecular target: Death-associated protein kinase 3 (Homo sapiens, UniProt O43293); format: functional;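 further: measured as one member of a kinome-wide profiling panel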
[23] = molecular target: Mitogen-activated protein kinase kinase kinase kinase 2 (Homo sapiens, UniProt Q12851); format: functional;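 further: measured as one member of a kinome-wide kinase panel, with MAP4K2 as the panel entry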
[24] = molecular target: Dual specificity mitogen-activated protein kinase kinase 2 (Homo sapiens, UniProt P36507); assay: Navigating the Kinome. Panel member name: MAP2K2; format: functional
[25] = molecular target: Serine/threonine-protein kinase TBK1 (Homo sapiens, UniProt Q9UHD2); assay: Navigating the Kinome. Panel member name: TBK1; format: functional
[26] = molecular target: Tyrosine-protein kinase BTK (Homo sapiens, UniProt Q06187); format: functional
[27] = molecular target: Dual specificity mitogen-activated protein kinase kinase 1 (Homo sapiens, UniProt Q02750); assay: Navigating the Kinome. Panel member name: MAP2K1; format: functional
[28] = molecular target: T2, Serine/threonine-protein kinase Nek2 (Homo sapiens, UniProt P51955); format: functional
T2 sequence (P51955 whole entry): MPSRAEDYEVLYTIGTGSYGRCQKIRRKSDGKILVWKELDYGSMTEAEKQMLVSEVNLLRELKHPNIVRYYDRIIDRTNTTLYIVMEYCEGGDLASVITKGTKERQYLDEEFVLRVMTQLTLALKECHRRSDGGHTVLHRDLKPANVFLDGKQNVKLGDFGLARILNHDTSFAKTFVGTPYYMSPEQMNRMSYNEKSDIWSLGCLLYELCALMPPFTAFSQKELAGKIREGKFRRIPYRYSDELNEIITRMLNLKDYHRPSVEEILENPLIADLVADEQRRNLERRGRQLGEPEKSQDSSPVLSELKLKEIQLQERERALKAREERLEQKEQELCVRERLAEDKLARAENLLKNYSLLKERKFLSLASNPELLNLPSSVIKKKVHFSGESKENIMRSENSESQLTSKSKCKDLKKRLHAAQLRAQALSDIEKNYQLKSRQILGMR

[29] = molecular target: Serine/threonine-protein kinase PAK 4 (Homo sapiens, UniProt O96013); format: functional;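 further: value obtained within a kinome profiling panel in which PAK4 was one of the panel members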
[30] = molecular target: cAMP-dependent protein kinase catalytic subunit alpha (Homo sapiens, UniProt P17612); format: functional
[31] = molecular target: 5'-AMP-activated protein kinase catalytic subunit alpha-1 (Homo sapiens, UniProt Q13131); format: functional

Sequence of Mitogen-activated protein kinase kinase kinase kinase 2 (Q12851 whole entry): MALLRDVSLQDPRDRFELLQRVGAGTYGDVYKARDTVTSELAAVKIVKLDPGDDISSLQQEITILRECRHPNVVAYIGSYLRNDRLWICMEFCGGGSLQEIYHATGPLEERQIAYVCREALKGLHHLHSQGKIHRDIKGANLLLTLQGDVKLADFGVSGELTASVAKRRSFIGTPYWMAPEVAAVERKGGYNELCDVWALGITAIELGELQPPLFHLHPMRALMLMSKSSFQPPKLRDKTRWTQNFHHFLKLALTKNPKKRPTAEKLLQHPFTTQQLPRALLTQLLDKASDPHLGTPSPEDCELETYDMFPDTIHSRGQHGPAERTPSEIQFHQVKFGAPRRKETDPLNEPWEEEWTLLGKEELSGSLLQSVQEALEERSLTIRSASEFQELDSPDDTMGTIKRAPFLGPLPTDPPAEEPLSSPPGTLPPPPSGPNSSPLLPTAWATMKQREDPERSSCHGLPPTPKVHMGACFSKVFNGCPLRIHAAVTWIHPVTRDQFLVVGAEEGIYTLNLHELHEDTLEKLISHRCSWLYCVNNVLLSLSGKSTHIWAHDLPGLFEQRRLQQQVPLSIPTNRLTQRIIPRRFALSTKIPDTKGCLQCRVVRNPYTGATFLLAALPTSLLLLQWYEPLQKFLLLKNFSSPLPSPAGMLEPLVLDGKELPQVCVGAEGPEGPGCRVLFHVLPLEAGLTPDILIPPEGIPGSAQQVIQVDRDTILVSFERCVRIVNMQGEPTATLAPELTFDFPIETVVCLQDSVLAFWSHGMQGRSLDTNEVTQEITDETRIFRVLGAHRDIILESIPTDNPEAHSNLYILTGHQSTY
Sequence of Death-associated protein kinase 3 (O43293 whole entry): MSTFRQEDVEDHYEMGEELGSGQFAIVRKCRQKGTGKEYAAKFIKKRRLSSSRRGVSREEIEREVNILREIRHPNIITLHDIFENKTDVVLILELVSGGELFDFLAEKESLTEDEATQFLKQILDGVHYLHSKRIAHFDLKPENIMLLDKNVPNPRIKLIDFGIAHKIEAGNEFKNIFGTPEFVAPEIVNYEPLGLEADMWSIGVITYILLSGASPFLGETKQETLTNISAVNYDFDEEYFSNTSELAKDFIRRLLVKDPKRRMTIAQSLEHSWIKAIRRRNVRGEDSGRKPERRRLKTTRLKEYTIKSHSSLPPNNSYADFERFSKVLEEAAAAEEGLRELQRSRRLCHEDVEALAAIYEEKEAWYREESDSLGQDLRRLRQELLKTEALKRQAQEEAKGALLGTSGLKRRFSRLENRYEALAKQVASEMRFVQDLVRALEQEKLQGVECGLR
Sequence of Fibroblast growth factor receptor 1 (P11362 whole entry): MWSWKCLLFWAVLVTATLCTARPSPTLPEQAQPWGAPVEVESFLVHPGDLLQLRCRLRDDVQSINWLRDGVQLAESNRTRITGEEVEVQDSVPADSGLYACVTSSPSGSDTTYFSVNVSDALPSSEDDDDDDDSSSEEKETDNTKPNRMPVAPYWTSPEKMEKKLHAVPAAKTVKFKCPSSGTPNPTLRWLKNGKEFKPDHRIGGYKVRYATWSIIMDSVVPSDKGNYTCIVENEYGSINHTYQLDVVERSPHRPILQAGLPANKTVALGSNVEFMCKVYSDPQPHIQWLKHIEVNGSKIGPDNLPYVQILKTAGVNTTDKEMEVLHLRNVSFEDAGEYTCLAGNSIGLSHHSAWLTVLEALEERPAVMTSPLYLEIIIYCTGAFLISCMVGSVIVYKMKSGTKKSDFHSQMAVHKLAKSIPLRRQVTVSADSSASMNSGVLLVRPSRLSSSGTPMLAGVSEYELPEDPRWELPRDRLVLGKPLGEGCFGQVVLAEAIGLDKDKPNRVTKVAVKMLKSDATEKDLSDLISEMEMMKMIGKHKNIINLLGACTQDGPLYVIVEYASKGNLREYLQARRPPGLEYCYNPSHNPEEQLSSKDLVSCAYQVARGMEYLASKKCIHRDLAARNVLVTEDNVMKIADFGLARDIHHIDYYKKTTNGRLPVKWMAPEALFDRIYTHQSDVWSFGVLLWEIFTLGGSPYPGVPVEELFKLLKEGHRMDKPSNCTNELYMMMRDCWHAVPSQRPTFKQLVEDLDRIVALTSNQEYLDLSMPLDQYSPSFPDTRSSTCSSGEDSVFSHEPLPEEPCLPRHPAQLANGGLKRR
Sequence of ALK tyrosine kinase receptor (Q9UM73 whole entry): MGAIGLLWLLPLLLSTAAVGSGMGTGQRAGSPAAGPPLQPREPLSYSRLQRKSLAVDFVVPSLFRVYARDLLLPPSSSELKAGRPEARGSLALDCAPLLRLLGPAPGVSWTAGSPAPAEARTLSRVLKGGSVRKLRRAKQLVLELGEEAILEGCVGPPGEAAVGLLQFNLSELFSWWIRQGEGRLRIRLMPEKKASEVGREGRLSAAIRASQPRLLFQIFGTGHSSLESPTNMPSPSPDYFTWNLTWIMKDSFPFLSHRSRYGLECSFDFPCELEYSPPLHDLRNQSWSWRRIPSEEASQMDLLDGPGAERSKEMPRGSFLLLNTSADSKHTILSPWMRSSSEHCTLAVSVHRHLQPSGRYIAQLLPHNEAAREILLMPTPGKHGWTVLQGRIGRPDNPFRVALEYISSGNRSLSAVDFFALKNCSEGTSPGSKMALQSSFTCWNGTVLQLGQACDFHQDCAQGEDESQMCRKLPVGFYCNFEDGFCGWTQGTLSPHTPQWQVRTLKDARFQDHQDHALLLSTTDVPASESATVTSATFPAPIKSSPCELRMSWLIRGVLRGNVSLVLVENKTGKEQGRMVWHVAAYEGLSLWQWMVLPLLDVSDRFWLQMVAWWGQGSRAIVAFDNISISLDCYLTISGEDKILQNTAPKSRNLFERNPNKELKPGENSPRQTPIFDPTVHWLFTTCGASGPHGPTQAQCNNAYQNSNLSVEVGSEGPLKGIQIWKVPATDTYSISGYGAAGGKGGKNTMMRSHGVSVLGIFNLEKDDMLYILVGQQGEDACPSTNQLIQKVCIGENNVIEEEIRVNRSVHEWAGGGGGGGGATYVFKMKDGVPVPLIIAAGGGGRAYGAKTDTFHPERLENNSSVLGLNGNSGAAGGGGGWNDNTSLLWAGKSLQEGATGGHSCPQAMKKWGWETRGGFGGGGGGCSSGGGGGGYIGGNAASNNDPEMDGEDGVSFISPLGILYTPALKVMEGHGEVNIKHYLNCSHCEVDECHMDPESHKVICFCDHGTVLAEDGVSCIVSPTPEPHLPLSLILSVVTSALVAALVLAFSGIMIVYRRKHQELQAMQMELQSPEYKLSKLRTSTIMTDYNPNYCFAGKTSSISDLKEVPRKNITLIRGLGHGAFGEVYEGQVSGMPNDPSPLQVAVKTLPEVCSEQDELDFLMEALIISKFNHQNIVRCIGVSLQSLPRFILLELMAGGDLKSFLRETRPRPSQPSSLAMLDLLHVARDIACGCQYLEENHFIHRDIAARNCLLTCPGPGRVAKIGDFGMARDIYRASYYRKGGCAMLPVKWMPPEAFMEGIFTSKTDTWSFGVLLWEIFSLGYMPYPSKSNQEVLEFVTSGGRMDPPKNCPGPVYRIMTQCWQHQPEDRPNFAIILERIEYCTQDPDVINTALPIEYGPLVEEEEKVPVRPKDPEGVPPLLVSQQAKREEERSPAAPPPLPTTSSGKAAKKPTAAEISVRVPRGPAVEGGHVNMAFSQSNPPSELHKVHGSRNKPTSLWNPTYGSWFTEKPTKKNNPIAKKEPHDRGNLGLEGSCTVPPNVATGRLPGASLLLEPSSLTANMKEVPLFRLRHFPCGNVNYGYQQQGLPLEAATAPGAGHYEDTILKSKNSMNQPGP
Sequence of Tyrosine-protein kinase JAK3 (P52333 whole entry): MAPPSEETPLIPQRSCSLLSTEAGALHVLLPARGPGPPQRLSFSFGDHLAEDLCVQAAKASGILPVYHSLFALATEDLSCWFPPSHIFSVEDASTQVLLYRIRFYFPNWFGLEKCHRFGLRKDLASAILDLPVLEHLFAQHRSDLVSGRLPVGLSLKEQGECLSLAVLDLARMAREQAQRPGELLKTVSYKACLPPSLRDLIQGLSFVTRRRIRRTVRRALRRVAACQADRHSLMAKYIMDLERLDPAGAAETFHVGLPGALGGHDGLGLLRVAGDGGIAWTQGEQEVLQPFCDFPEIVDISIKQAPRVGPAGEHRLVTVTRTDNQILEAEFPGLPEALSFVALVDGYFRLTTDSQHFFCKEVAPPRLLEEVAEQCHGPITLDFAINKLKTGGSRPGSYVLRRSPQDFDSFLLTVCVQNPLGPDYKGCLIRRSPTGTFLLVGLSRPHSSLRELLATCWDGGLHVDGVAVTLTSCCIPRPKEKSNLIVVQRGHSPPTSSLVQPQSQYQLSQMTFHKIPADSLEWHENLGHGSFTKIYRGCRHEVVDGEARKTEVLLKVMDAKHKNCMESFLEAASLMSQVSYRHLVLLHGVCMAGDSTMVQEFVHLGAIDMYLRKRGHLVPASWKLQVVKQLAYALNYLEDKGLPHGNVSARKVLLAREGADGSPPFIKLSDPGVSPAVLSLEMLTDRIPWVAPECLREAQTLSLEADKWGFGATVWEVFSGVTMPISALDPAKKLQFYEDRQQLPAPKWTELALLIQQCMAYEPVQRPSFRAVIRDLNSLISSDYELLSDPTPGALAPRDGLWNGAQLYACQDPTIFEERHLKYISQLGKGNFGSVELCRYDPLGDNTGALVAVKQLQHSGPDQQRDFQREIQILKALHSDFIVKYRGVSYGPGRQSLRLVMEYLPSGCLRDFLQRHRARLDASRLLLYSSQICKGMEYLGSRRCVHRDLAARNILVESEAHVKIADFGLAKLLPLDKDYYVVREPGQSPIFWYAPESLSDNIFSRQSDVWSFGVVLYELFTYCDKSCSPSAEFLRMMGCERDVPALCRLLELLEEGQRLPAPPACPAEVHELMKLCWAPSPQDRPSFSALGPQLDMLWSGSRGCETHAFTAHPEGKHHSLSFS

Ki [7]	Ki [8]	Ki [9]	Ki [10]	Ki [11]	Ki [12]	Ki [13]	Ki [14]	Ki [15]	Ki [16]	Ki [17]	Ki [18]	Ki [19]	Ki [20]	Ki [21]	Structure (SMILES)	AC50 [1]	EC50 [3]	EC50 [4]	AC50 [5]	Ki [22]	also measured
–	–	–	–	–	–	–	–	–	–	–	–	–	–	–	Cc1ccc(C(=O)OCn2ncc(Cl)c(Cl)c2=O)cc1	5510 nM (active)	3070 nM (inconclusive)	> 38000 nM (not active)	33200 nM (active)	–	IC50 [2]: > 66200 nM (inactive)
–	–	–	–	–	–	–	–	–	–	–	–	–	–	–	O=C(O)CC(C(=O)O)N1C(=O)/C(=C/C=C/c2ccco2)SC1=S (stereo not given)	–	–	–	–	–	IC50 [6]: > 71500 nM (inactive)
> 6310 nM (inactive)	> 2510 nM (inactive)	> 2510 nM (inactive)	> 5010 nM (inactive)	> 3160 nM (inactive)	794 nM (active)	398 nM (active)	794 nM (active)	> 3980 nM (inactive)	3160 nM (active)	> 2510 nM (inactive)	> 3980 nM (inactive)	> 2510 nM (inactive)	> 2510 nM (inactive)	3160 nM (active)	O=C(Nc1cccc(C2Nc3ccc4ccccc4c3C3C=CCC32)c1)c1ccc(F)cc1 (stereo not given)	–	–	–	–	> 5010 nM (inactive)	Ki [23]: 1260 nM (active); Ki [24]: 398 nM (active); Ki [25]: 3160 nM (active); Ki [26]: 5010 nM (active); Ki [27]: 1000 nM (active); Ki [28]: 1580 nM (active); Ki [29]: > 5010 nM (inactive); Ki [30]: 1260 nM (active); Ki [31]: 3160 nM (active)
3160 nM (active)	398 nM (active)	794 nM (active)	> 5010 nM (inactive)	> 3160 nM (inactive)	631 nM (active)	316 nM (active)	1000 nM (active)	> 3980 nM (inactive)	794 nM (active)	> 2510 nM (inactive)	1580 nM (active)	> 2510 nM (inactive)	794 nM (active)	2000 nM (active)	Cc1ccc(-c2cc(-c3cc(Br)ccc3O)[nH]c(=O)c2C#N)s1	–	–	–	–	> 5010 nM (inactive)	Ki [23]: > 2510 nM (inactive); Ki [24]: 1580 nM (active); Ki [25]: > 3160 nM (inactive); Ki [26]: > 6310 nM (inactive); Ki [27]: > 3160 nM (inactive); Ki [28]: > 3160 nM (inactive); Ki [29]: 2000 nM (active); Ki [30]: 251 nM (active); Ki [31]: 794 nM (active)
–	–	–	–	–	–	–	–	–	–	–	–	–	–	–	CCCC(=O)NC(c1cccs1)c1cc(Cl)c2cccnc2c1O (stereo not given)	1420 nM (active)	> 150000 nM (inactive)	707 nM (active)	3760 nM (active)	–	–

— ChEMBL document CHEMBL1201862, “PubChem BioAssay data set” (2004)
